# Measurements from ChEMBL document CHEMBL5036306 (J Med Chem, 2021).
# Calls of active or inactive are those of the source. No cut-off for these calls is given here.
# How the values were obtained:
# [1] = biological target: T1, Protein deacetylase HDAC6 (Mus musculus) (UniProt Q9Z2V5); test: Inhibition of HDAC6 in mouse HT-22 cells assessed as increase in acetylated histone H3 level at 20 to 500 nM after 24 hrs by Western blotting analysis; type: cell-based; details: dose 20-500 nM
# T1 sequence (whole entry): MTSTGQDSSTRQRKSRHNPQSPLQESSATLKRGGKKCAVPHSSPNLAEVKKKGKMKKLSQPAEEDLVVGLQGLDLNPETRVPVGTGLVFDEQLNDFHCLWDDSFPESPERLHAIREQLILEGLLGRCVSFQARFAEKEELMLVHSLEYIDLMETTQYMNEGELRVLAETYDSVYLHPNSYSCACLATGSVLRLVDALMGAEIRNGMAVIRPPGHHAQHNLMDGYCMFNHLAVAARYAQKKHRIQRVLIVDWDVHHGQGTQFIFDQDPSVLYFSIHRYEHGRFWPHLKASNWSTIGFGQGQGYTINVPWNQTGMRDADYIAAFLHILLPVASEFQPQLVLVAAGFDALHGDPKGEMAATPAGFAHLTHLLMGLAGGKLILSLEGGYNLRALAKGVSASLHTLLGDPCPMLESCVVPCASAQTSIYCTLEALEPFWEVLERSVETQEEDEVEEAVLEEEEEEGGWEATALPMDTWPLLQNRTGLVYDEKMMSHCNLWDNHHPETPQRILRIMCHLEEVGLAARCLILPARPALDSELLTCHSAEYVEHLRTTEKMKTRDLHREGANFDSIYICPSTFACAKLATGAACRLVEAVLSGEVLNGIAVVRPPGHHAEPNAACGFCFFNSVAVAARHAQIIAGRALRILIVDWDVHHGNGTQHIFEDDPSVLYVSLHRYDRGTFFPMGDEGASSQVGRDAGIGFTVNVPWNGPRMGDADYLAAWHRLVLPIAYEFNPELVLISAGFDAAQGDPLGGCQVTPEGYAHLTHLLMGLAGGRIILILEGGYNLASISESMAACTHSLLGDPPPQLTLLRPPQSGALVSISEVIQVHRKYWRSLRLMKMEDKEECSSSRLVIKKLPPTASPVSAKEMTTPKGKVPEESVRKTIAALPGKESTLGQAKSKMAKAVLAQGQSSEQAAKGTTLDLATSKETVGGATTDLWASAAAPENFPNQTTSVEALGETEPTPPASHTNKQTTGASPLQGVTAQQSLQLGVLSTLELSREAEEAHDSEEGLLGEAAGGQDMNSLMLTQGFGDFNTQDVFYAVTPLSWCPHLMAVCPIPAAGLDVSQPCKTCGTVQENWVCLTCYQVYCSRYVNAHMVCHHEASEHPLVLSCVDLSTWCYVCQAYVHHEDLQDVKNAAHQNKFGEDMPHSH
# N9 [2] = test: Immunomodulatory activity in mouse N9 microglial cells assessed as reduction in LPS-induced nitrite accumulation incubated for 24 hrs by Griess reagent based analysis; type: functional, cell-based; details: dose 0.1-5 µM
# Mus musculus [3] = test: Anti-alzheimer activity against amyloid beta (25 to 35) induced working memory deficit in mouse assessed as increase in spontaneous alternation performance at 0.3 mg/kg, ip administered for 7 days and measured on day 8 by Y-maze test; type: functional, organism-based; details: time 8.0 day
# [4] = biological target: T1, Protein deacetylase HDAC6 (Mus musculus); test: Inhibition of HDAC6 in mouse HT-22 cells assessed as increase in acetylated histone H4 level at 20 to 500 nM after 24 hrs by Western blotting analysis; type: cell-based; details: dose 20-500 nM
# Mus musculus [5] = test: Anti-alzheimer activity against amyloid beta (25 to 35) induced working memory deficit mouse assessed as step-through latency time to enter dark compartment at 0.1 to 0.3 mg/kg, ip administered for 7 days and measured on day 9 days by passive avoidance test; type: functional, organism-based; details: dose 0.1-0.3 mg/kg, time 9.0 day
# Mus musculus [6] = test: Anti-alzheimer activity against amyloid beta (25 to 35) induced working memory deficit mouse assessed as step-through latency time to enter dark compartment at 1 mg/kg, ip administered for 7 days and measured on day 9 days by passive avoidance test; type: functional, organism-based; details: time 9.0 day
# [7] = Toxicity in mouse model of Alzheimer's disease assessed as drug tolerability at 0.3 to 3 mg/kg, ip measured after 7 days; type: organism-based; details: in vivo, 168 h, dose 0.3-3 mg/kg, time 7 day
# N9 [8] = test: Immunomodulatory activity in mouse N9 microglial cells assessed as reduction in LPS-induced IL1beta level incubated for 24 hrs by colorimetric assay; type: functional, cell-based; details: dose 0.1-5 µM
# Mus musculus [9] = test: Cognitive enhancing effect in mouse model of Alzheimer's disease at 1 mg/kg; type: functional, organism-based
# N9 [10] = test: Immunomodulatory activity in mouse N9 microglial cells assessed as reduction in LPS-induced iNOS expression incubated for 24 hrs by Western blot analysis; type: functional, cell-based; details: dose 0.1-5 µM
# Mus musculus [11] = test: Neuroprotection against mouse model of Alzheimer's disease at 1 mg/kg; type: functional, organism-based
# [12] = biological target: T1, Protein deacetylase HDAC6 (Mus musculus); test: Inhibition of HDAC6 in mouse HT-22 cells assessed as increase in acetylated tubulin level at 20 to 500 nM after 24 hrs by Western blotting analysis; type: cell-based; details: dose 20-500 nM
# [13] = biological target: T1, Protein deacetylase HDAC6 (Mus musculus); test: Inhibition of HDAC6 in mouse HT-22 cells assessed as increase in acetylated tubulin level at […] after 24 hrs by Western blotting analysis; type: cell-based
inhibition [1],inhibition [4],inhibition [12],inhibition [13],SMILES,Activity (N9 [2]),Activity (Mus musculus [3]),Activity (Mus musculus [5]),Activity (Mus musculus [6]),Activity [7],Activity (N9 [8]),Activity (Mus musculus [9]),Activity (N9 [10]),Activity (Mus musculus [11])
inactive,inactive,Active,–,COc1ccc2[nH]cc(CCN(Cc3ccc(C(=O)NO)cc3)C(=O)/C=C/c3ccc(O)c(OC)c3)c2c1,Dose-Dependent Effect,Active,Active,inactive,Non-Toxic,Dose-Dependent Effect,Active,Dose-Dependent Effect,Active
–,–,–,Active,COc1ccc2c(c1)c(CCNC(C)=O)cn2Cc1ccc(C(=O)NO)cc1,–,–,–,–,–,–,–,–,–
